The source made the active and inactive calls. The rule behind the calls is not given here.
Tests used:
[1] = Selectivity index, ratio of IC50 for binding affinity to human integrin alpha5beta1 to IC50 for binding affinity to human integrin alphaVbeta3
Integrin alpha-5/beta-1 = Integrin alpha-5/beta-1 (Homo sapiens, UniProt P05556+P08648); assay: Binding affinity to human integrin alpha5beta1 incubated for 1 hr by ELISA based solid phase integrin binding assay; assay type: protein-complex assay
Integrin alpha-V/beta-3 [2] = molecular target: T1, Integrin alpha-V/beta-3 (Homo sapiens, UniProt P05106+P06756); assay: Binding affinity to human integrin alphaVbeta3 incubated for 1 hr by ELISA based solid phase integrin binding assay; assay type: protein-complex assay
Target sequence in this assay (P05106 27-788 limits assumed): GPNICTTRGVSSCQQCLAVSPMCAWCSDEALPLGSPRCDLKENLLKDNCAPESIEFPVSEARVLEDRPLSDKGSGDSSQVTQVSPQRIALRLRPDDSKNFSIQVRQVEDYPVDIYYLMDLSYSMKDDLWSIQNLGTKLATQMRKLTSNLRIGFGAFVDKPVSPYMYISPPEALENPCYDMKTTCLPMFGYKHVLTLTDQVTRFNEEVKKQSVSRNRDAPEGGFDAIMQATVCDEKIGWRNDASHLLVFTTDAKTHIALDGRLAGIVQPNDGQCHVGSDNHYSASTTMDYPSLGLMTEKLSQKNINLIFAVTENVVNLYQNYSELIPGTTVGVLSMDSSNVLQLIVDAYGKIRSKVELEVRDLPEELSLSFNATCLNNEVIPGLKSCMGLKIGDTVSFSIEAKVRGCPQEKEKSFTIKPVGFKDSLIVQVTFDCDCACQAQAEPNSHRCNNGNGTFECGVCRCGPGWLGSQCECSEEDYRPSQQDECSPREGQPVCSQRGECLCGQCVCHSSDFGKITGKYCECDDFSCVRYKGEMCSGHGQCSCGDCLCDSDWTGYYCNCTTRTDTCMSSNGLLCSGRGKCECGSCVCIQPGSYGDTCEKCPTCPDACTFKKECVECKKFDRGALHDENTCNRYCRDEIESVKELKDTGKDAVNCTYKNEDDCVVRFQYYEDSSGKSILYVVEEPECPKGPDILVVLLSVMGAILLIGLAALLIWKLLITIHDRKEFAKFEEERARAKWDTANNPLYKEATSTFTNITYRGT
Target sequence in this assay (P06756 31-889 limits assumed): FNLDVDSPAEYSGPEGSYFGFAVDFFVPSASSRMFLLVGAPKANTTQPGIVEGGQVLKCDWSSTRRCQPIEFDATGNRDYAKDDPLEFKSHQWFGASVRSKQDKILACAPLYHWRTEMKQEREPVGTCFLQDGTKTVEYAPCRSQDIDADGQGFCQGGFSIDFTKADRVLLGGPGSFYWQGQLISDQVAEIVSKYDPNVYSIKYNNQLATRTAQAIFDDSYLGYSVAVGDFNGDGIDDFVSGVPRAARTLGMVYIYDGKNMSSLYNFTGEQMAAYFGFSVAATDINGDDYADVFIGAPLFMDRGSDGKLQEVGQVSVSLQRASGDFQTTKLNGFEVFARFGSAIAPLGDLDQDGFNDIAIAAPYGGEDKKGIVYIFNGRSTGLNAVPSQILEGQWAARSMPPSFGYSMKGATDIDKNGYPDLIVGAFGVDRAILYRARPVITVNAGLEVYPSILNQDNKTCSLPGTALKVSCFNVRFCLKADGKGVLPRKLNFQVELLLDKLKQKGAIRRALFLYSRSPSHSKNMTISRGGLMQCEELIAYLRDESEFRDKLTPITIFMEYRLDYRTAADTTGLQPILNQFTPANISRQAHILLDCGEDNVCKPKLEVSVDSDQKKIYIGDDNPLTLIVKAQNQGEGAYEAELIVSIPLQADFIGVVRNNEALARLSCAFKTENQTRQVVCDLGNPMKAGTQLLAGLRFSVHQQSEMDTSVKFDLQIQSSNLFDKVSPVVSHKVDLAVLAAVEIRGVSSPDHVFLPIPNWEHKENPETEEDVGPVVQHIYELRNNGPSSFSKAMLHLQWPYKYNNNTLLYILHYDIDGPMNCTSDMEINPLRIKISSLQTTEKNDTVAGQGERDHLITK
Target sequence in this assay (P06756 891-1048 limits assumed): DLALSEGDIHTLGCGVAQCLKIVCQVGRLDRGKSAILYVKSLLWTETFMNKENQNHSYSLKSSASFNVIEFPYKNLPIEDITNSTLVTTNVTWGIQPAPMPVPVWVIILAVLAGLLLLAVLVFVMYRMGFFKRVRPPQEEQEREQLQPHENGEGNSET

KB = assay: Cytotoxicity in human KB cells; assay type: functional, cell-based; details: for IC50: Homo sapiens, KB
[3] = molecular target: Integrin alpha-IIb/beta-3 (Homo sapiens, UniProt P05106+P08514); assay: Binding affinity to human integrin alpha2bbeta3 incubated for 1 hr by ELISA based solid phase integrin binding assay; assay type: protein complex
Integrin alpha-V/beta-6 = Integrin alpha-V/beta-6 (Homo sapiens, UniProt P06756+P18564); assay: Binding affinity to human integrin alphaVbeta6 incubated for 1 hr by ELISA based solid phase integrin binding assay; assay type: protein-complex assay
Integrin alpha-V/beta-8 = Integrin alpha-V/beta-8 (Homo sapiens, UniProt P06756+P26012); assay: Binding affinity to human integrin alphaVbeta8 incubated for 1 hr by ELISA based solid phase integrin binding assay; assay type: protein-complex assay
Integrin alpha-V/beta-3 [4] = molecular target: T1, Integrin alpha-V/beta-3; assay: Binding affinity to integrin alphaVbeta3 expressed in human M21 cells at 250 uM incubated for 30 mins by confocal microscopy; assay type: cell-based

Sequence of Integrin alpha-IIb/beta-3 (P05106 27-788 limits assumed): as the sequence (P05106 27-788 limits assumed) above
Sequence of Integrin alpha-IIb/beta-3 (P08514 32-887 limits assumed): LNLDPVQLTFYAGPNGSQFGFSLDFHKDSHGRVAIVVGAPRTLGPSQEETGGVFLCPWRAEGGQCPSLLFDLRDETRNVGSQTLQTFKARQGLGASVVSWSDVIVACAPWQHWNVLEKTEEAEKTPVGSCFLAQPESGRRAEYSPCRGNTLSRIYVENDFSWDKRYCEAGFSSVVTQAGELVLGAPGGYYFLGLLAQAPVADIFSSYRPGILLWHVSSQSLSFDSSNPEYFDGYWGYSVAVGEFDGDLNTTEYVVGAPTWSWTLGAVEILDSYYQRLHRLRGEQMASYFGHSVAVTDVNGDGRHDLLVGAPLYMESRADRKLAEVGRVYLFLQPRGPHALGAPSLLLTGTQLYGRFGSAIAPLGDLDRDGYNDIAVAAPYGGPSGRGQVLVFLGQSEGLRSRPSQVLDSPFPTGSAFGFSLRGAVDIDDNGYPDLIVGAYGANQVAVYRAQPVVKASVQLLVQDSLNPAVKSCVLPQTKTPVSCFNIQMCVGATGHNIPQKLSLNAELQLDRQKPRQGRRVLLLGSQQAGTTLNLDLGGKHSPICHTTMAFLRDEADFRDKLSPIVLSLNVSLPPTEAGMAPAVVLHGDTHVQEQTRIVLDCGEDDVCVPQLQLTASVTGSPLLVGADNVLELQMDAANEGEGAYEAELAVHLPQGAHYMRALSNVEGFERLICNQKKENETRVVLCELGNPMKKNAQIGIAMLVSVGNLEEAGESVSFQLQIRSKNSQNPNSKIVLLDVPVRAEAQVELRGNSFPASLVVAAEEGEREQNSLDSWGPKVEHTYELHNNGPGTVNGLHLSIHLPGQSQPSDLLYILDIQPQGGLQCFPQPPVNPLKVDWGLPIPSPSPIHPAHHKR
Sequence of Integrin alpha-IIb/beta-3 (P08514 891-1039 limits assumed): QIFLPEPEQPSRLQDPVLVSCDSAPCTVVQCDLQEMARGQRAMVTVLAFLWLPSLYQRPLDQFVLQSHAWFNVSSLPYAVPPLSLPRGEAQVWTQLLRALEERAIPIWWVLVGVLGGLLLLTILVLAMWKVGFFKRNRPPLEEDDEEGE
Sequence of Integrin alpha-5/beta-1 (P05556 21-798 limits assumed): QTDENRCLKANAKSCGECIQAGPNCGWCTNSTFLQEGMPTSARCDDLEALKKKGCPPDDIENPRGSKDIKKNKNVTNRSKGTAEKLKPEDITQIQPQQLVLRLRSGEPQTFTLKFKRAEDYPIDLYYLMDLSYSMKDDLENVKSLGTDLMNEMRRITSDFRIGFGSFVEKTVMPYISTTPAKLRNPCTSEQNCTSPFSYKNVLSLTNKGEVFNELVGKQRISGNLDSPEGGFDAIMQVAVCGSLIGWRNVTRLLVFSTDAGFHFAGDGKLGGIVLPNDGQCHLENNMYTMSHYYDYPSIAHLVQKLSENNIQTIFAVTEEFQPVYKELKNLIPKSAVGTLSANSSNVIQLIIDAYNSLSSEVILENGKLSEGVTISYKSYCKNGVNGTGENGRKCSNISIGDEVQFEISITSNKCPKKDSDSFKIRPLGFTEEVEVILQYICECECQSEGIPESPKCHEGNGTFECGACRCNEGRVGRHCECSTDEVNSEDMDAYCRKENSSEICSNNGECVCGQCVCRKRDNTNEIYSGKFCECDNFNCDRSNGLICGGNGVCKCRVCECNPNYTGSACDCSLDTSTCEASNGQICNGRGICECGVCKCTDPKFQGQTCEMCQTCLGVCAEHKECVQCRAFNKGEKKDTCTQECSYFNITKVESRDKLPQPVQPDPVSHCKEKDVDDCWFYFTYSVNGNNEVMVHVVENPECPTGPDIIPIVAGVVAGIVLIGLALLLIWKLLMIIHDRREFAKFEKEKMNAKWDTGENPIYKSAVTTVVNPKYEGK
Sequence of Integrin alpha-5/beta-1 (P08648 42-894 limits assumed): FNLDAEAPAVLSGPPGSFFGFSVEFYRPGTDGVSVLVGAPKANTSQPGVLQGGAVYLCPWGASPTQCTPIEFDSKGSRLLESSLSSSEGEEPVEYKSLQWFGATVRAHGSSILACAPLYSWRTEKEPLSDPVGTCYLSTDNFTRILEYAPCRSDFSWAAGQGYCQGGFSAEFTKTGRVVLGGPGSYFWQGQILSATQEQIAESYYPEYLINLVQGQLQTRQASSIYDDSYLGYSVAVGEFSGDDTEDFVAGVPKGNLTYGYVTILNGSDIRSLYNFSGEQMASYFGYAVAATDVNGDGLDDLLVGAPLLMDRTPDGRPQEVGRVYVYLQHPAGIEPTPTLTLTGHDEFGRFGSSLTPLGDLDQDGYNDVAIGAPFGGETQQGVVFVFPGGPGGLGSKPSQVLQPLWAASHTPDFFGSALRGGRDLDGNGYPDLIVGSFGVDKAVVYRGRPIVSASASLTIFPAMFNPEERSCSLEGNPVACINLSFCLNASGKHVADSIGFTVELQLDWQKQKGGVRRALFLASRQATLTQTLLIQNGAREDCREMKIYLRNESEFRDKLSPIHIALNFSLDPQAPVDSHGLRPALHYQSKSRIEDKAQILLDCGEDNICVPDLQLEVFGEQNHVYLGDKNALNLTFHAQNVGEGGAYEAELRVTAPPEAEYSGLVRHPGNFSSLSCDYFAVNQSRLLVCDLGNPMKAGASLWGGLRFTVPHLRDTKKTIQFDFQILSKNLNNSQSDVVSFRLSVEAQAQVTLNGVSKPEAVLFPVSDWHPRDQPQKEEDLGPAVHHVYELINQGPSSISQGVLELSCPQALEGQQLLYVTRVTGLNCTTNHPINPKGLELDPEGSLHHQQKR
Sequence of Integrin alpha-5/beta-1 (P08648 895-1049 limits assumed): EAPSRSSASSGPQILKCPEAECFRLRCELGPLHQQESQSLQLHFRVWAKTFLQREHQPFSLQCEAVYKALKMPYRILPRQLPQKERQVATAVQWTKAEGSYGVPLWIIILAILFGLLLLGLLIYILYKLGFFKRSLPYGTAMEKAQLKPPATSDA

Row | SMILES | Ratio IC50 [1] | IC50 (Integrin alpha-5/beta-1) [nM] | IC50 (Integrin alpha-V/beta-3 [2]) [nM] | other results
1 | COc1ccc(C[C@H]2NC(=O)/C=C/C[C@@H]([C@H](C)[C@@H]3O[C@H]3c3ccccc3)OC(=O)[C@H](CC(C)C)OC(=O)C(C)(C)CNC2=O)cc1Cl | – | – | – | IC50 (KB): 0.009 nM
2 | O=[N+]([O-])/C=C1\NCCN1Cc1cccnc1 | – | – | – | LC90 (KB): 8 ppm
3 | COc1ccc(C[C@H]2NC(=O)/C=C/C[C@@H]([C@H](C)[C@@H]3O[C@H]3c3ccccc3)OC(=O)[C@H](CC(C)C)OC(=O)C(C)(C)CNC2=O)cc1 | – | – | – | IC50 (KB): 0.073 nM
4 | O=[N+]([O-])/C=C1\NCCN1Cc1ccc(Br)nc1 | – | – | – | LC90 (KB): 1.6 ppm
5 | CC(C)[C@@H]1NC(=O)[C@@H](Cc2c[nH]c3c(-c4ccc5ccc6cccc7ccc4c5c67)cccc23)NC(=O)[C@H](CC(=O)O)NC(=O)CNC(=O)[C@H](CCCNC(=N)N)NC1=O | 407 | – | – | IC50 [3]: > 10000 nM; IC50 (Integrin alpha-V/beta-6): 299 nM; Activity (Integrin alpha-V/beta-3 [4]): Active; IC50 (Integrin alpha-V/beta-8): 1010 nM
6 | O=[N+]([O-])/C=C1\NCCN1Cc1ccc(F)nc1 | – | – | – | LC90 (KB): 0.32 ppm
7 | CC(C)[C@H]1C(=O)N[C@@H](CCCNC(=N)N)C(=O)NCC(=O)N[C@@H](CC(=O)O)C(=O)N[C@H](Cc2c[nH]c3c(Br)cccc23)C(=O)N1C | 7.4 | 10.2 | 1.37 | –
8 | CC(C)[C@@H]1C(=O)N[C@@H](CCCNC(=N)N)C(=O)NCC(=O)N[C@@H](CC(=O)O)C(=O)N[C@@H](Cc2c[nH]c3c(Br)cccc23)C(=O)N1C | – | > 10000 | 311 | –
9 | O=[N+]([O-])/C=C1\NCCN1Cc1ccc(Cl)nc1 | – | – | – | LC90 (KB): 0.32 ppm

More lines, main results first:

Row | Ratio IC50 [1] | IC50 (Integrin alpha-5/beta-1) [nM] | IC50 (Integrin alpha-V/beta-3 [2]) [nM] | SMILES | other results
10 | 891 | 472 | 0.53 | CC(C)[C@H]1NC(=O)[C@H](Cc2c[nH]c3c(Br)cccc23)NC(=O)[C@H](CC(=O)O)NC(=O)CNC(=O)[C@H](CCCNC(=N)N)NC1=O | –
11 | 163 | 39.1 | 0.24 | CC(C)[C@@H]1NC(=O)[C@@H](Cc2c[nH]c3cc(Cl)ccc23)NC(=O)[C@H](CC(=O)O)NC(=O)CNC(=O)[C@H](CCCNC(=N)N)NC1=O | –
12 | 120 | 74.3 | 0.62 | CC(C)[C@@H]1NC(=O)[C@@H](Cc2c[nH]c3c(Br)cccc23)NC(=O)[C@H](CC(=O)O)NC(=O)CNC(=O)[C@H](CCCNC(=N)N)NC1=O | –
13 | 167 | 58.3 | 0.35 | CC(C)[C@@H]1NC(=O)[C@@H](Cc2c[nH]c3c(F)cccc23)NC(=O)[C@H](CC(=O)O)NC(=O)CNC(=O)[C@H](CCCNC(=N)N)NC1=O | –
14 | 42 | 22 | 0.52 | CC(C)[C@@H]1NC(=O)[C@@H](Cc2c[nH]c3c(-c4ccc(C(=O)O)cc4)cccc23)NC(=O)[C@H](CC(=O)O)NC(=O)CNC(=O)[C@H](CCCNC(=N)N)NC1=O | IC50 [3]: > 10000 nM; IC50 (Integrin alpha-V/beta-6): 54 nM; IC50 (Integrin alpha-V/beta-8): 39.2 nM
15 | 89 | 66 | 0.74 | COc1ccc(-c2cccc3c(C[C@H]4NC(=O)[C@H](CC(=O)O)NC(=O)CNC(=O)[C@H](CCCNC(=N)N)NC(=O)[C@H](C(C)C)NC4=O)c[nH]c23)cc1 | IC50 [3]: > 10000 nM; IC50 (Integrin alpha-V/beta-6): 50 nM; IC50 (Integrin alpha-V/beta-8): 76.5 nM
16 | 1170 | 610 | 0.52 | CC(C)[C@@H]1NC(=O)[C@@H](Cc2c[nH]c3c(-c4cccc(N)c4)cccc23)NC(=O)[C@H](CC(=O)O)NC(=O)CNC(=O)[C@H](CCCNC(=N)N)NC1=O | IC50 [3]: > 10000 nM; IC50 (Integrin alpha-V/beta-6): 36 nM; IC50 (Integrin alpha-V/beta-8): 220 nM
17 | 8.6 | 9.9 | 1.15 | CC(C)[C@@H]1NC(=O)[C@@H](Cc2c[nH]c3ccccc23)NC(=O)[C@H](CC(=O)O)NC(=O)CNC(=O)[C@H](CCCNC(=N)N)NC1=O | –
18 | 82 | 43.3 | 0.53 | CC(C)[C@@H]1NC(=O)[C@@H](Cc2c[nH]c3cc(Br)ccc23)NC(=O)[C@H](CC(=O)O)NC(=O)CNC(=O)[C@H](CCCNC(=N)N)NC1=O | –
19 | 269 | 91.3 | 0.34 | CC(C)[C@@H]1NC(=O)[C@@H](Cc2c[nH]c3c(Cl)cccc23)NC(=O)[C@H](CC(=O)O)NC(=O)CNC(=O)[C@H](CCCNC(=N)N)NC1=O | –
20 | 798 | 471 | 0.59 | CC(C)[C@@H]1NC(=O)[C@@H](Cc2c[nH]c3c(-c4c5ccccc5cc5ccccc45)cccc23)NC(=O)[C@H](CC(=O)O)NC(=O)CNC(=O)[C@H](CCCNC(=N)N)NC1=O | IC50 [3]: > 10000 nM; IC50 (Integrin alpha-V/beta-6): 32 nM; IC50 (Integrin alpha-V/beta-8): 193 nM
21 | 114 | 49.2 | 0.43 | CC(C)[C@@H]1NC(=O)[C@@H](Cc2c[nH]c3c(I)cccc23)NC(=O)[C@H](CC(=O)O)NC(=O)CNC(=O)[C@H](CCCNC(=N)N)NC1=O | –

— ChEMBL document CHEMBL4765475, “Tuning the Biological Activity of RGD Peptides with Halotryptophans†” (J Med Chem, 2021)
